Experimental data reported in US20170022171A1, “2,5-DISUBSTITUTED CYCLOPENTANECARBOXYLIC ACIDS AND THEIR USE” (Bayer Pharma Aktiengesellschaft, priority 2014, published 2017).

The compounds below were run against T1, human macrophage elastase (HME/hMMP-12) (Homo sapiens, UniProt P39900) (assay: In vitro HME inhibition test (standard or high-sensitivity)). Details: in some cases mean values.
T1 construct: 0.5 nM HME; purchased R&D Systems 917-MP
T1 sequence (P39900 106-470): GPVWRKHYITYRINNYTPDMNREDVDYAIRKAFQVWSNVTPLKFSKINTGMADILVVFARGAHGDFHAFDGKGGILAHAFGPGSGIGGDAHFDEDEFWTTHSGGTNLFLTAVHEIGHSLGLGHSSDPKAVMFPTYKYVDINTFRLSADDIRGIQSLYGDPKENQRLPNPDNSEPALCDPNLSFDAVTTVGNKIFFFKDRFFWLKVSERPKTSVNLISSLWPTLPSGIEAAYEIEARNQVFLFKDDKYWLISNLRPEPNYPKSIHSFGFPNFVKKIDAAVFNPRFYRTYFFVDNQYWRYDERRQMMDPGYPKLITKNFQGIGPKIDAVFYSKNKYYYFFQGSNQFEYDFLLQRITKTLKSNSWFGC
Assay type: biochemical
Procedure: The potency of the compounds according to the invention with respect to HME (MMP-12) is determined in an in vitro inhibition test. The HME-mediated amidolytic cleavage of a suitable peptide substrate leads to an increase in fluorescent light therein. The signal intensity of the fluorescent light is directly proportional to the enzyme activity. The active concentration of a test compound at which half the enzyme is inhibited (50% signal intensity of the fluorescent light) is reported as the IC50 value.
In a 384 hole microtiter plate, in a total test volume of 41 the test buffer (0.1 M HEPES pH 7.4, 0.15 M NaCl, 0.03 M CaCl2, 0.004 mM ZnCl2, 0.02 M EDTA, 0.005% Brij®), the enzyme (0.5 nM HME; from R&D Systems, 917-MP, autocatalytic activation according to the manufacturer's instructions) and the intramolecularly quenched substrate [5 μM Mca-Pro-Leu-Gly-Leu-Glu-Glu-Ala-Dap(Dnp)-NH2; Bachem, M-2670] are incubated in the absence and presence of the test substance (as a solution in DMSO) at 37° C. for two hours. The fluorescence intensity of the test mixtures is measured (excitation […], emission 393 nm). The IC50 values are ascertained by plotting the fluorescent light intensity against the active ingredient concentration.
In this case, an enzyme concentration ten times lower is used (final concentration, for example, 0.05 nM) in order to achieve an elevated test sensitivity. The incubation period chosen for the test is correspondingly longer (for example 16 hours).
Compound CC(C)CCOc1ccc(C(=O)[C@@H]2CC[C@H](Cn3nnc4ccc(C(F)(F)F)cc4c3=O)[C@H]2C(=O)O)cc1 (single isomer, unassigned) [Example 62, (−)-(1RS,2RS,5SR)-2-[4-(3-Methylbutoxy)benzoyl]-5-{[4-oxo-6-(trifluoromethyl)-1,2,3-benzotriazin-3(4H)-yl]methyl}cyclopentanecarboxylic acid] has an IC50 of 4.7 nM.
With CCCCCOc1ccc(C(=O)[C@@H]2CC[C@H](Cn3nnc4ccc(C(F)(F)F)cc4c3=O)[C@H]2C(=O)O)cc1 (single isomer, unassigned) [Example 64, (+)-(1RS,2SR,5RS)-2-{[4-Oxo-6-(trifluoromethyl)-1,2,3-benzotriazin-3(4H)-yl]methyl}-5-[4-(pentyloxy)benzoyl]cyclopentanecarboxylic acid] the IC50 was 0.068 nM.
CCCCCOc1ccc(C(=O)[C@@H]2CC[C@H](Cn3nnc4ccc(C(F)(F)F)cc4c3=O)[C@H]2C(=O)O)cc1 (single isomer, unassigned) [Example 65, (−)-(1RS,2SR,5RS)-2-{[4-Oxo-6-(trifluoromethyl)-1,2,3-benzotriazin-3(4H)-yl]methyl}-5-[4-(pentyloxy)benzoyl]cyclopentanecarboxylic acid] was tested, and the IC50 was 1.2 nM.
CCCCOc1ccc(C(=O)[C@@H]2CC[C@H](Cn3nnc4ccc(C(F)(F)F)cc4c3=O)[C@H]2C(=O)O)cc1 (single isomer, unassigned) [Example 68, (−)-(1RS,2RS,5SR)-2-(4-Butoxybenzoyl)-5-{[4-oxo-6-(trifluoromethyl)-1,2,3-benzotriazin-3(4H)-yl]methyl}cyclopentanecarboxylic acid] showed an IC50 of 2.1 nM.
Compound CCCOc1ccc(C(=O)[C@@H]2CC[C@H](Cn3nnc4ccc(C(F)(F)F)cc4c3=O)[C@H]2C(=O)O)cc1 (single isomer, unassigned) [Example 70, (+)-(1RS,2SR,5RS)-2-{[4-Oxo-6-(trifluoromethyl)-1,2,3-benzotriazin-3(4H)-yl]methyl}-5-(4-propoxybenzoyl)cyclopentanecarboxylic acid] has an IC50 of 0.031 nM.
CCCOc1ccc(C(=O)[C@@H]2CC[C@H](Cn3nnc4ccc(C(F)(F)F)cc4c3=O)[C@H]2C(=O)O)cc1 (single isomer, unassigned) [Example 71, (−)-(1RS,2SR,5RS)-2-{[4-Oxo-6-(trifluoromethyl)-1,2,3-benzotriazin-3(4H)-yl]methyl}-5-(4-propoxybenzoyl)cyclopentanecarboxylic acid] was tested, and the IC50 was 2.7 nM.
In the case of O=C(O)[C@@H]1[C@@H](Cn2nnc3ccc(C(F)(F)F)cc3c2=O)CC[C@H]1C(=O)c1ccc(SCc2ccccc2)cc1 (single isomer, unassigned) [Example 74, (−)-(1RS,2RS,5SR)-2-[4-(Benzylsulphanyl)benzoyl]-5-{[4-oxo-6-(trifluoromethyl)-1,2,3-benzotriazin-3(4H)-yl]methyl}cyclopentanecarboxylic acid], the IC50 is reported as 160 nM.
In the case of O=C(O)[C@@H]1[C@@H](Cn2nnc3ccc(C(F)(F)F)cc3c2=O)CC[C@H]1C(=O)c1ccc(SCc2cccc(Cl)c2)cc1 (single isomer, unassigned) [Example 78, (−)-(1RS,2RS,5SR)-2-{4-[(3-Chlorobenzyl)sulphanyl]benzoyl}-5-{[4-oxo-6-(trifluoromethyl)-1,2,3-benzotriazin-3(4H)-yl]methyl}cyclopentanecarboxylic acid], the IC50 is reported as 8.8 nM.
Work on O=C(O)[C@@H]1[C@@H](Cn2nnc3ccc(C(F)(F)F)cc3c2=O)CC[C@H]1C(=O)c1ccc(SCc2ccc(Cl)c(Cl)c2)cc1 (single isomer, unassigned) [Example 81, (−)-(1RS,2RS,5SR)-2-{4-[(3,4-Dichlorobenzyl)sulphanyl]benzoyl}-5-{[4-oxo-6-(trifluoromethyl)-1,2,3-benzotriazin-3(4H)-yl]methyl}cyclopentanecarboxylic acid] yielded an IC50 of 25 nM.
CCCCCSc1ccc(C(=O)[C@@H]2CC[C@H](Cn3nnc4ccc(C(F)(F)F)cc4c3=O)[C@H]2C(=O)O)cc1 (single isomer, unassigned) [Example 89, (+)-(1RS,2SR,5RS)-2-{[4-Oxo-6-(trifluoromethyl)-1,2,3-benzotriazin-3(4H)-yl]methyl}-5-[4-(pentylsulphanyl)benzoyl]cyclopentanecarboxylic acid] was tested, and the IC50 was 0.045 nM.
CCCCCSc1ccc(C(=O)[C@@H]2CC[C@H](Cn3nnc4ccc(C(F)(F)F)cc4c3=O)[C@H]2C(=O)O)cc1 (single isomer, unassigned) [Example 90, (−)-(1RS,2SR,5RS)-2-{[4-Oxo-6-(trifluoromethyl)-1,2,3-benzotriazin-3(4H)-yl]methyl}-5-[4-(pentylsulphanyl)benzoyl]cyclopentanecarboxylic acid] was tested, and the IC50 was 1.1 nM.
Work on Cc1ccc2nnn(C[C@H]3CC[C@@H](C(=O)c4ccc(OCc5ccccc5)cc4)[C@@H]3C(=O)O)c(=O)c2c1 (single isomer, unassigned) [Example 93, (−)-(1RS,2RS,5SR)-2-[4-(Benzyloxy)benzoyl]-5-[(6-methyl-4-oxo-1,2,3-benzotriazin-3(4H)-yl)methyl]cyclopentanecarboxylic acid] yielded an IC50 of 190 nM.
Compound Cc1ccc2nnn(C[C@H]3CC[C@@H](C(=O)c4ccc(OCc5ccc(F)cc5)cc4)[C@@H]3C(=O)O)c(=O)c2c1 (single isomer, unassigned) [Example 95, (+)-(1RS,2RS,5SR)-2-{4-[(4-Fluorobenzyl)oxy]benzoyl}-5-[(6-methyl-4-oxo-1,2,3-benzotriazin-3(4H)-yl)methyl]cyclopentanecarboxylic acid] has an IC50 of 0.025 nM.
Work on Cc1ccc2nnn(C[C@H]3CC[C@@H](C(=O)c4ccc(OCc5ccc(F)cc5)cc4)[C@@H]3C(=O)O)c(=O)c2c1 (single isomer, unassigned) [Example 96, (−)-(1RS,2RS,5SR)-2-{4-[(4-Fluorobenzyl)oxy]benzoyl}-5-[(6-methyl-4-oxo-1,2,3-benzotriazin-3(4H)-yl)methyl]cyclopentanecarboxylic acid] yielded an IC50 of 120 nM.
In the case of Cc1cccc(COc2ccc(C(=O)[C@@H]3CC[C@H](Cn4nnc5ccc(C)cc5c4=O)[C@H]3C(=O)O)cc2)c1 (single isomer, unassigned) [Example 99, (−)-(1RS,2RS,5SR)-2-{4-[(3-Methylbenzyl)oxy]benzoyl}-5-[(6-methyl-4-oxo-1,2,3-benzotriazin-3(4H)-yl)methyl]cyclopentanecarboxylic acid], the IC50 is reported as 210 nM.
Cc1ccc2nnn(C[C@H]3CC[C@@H](C(=O)c4ccc(OCc5cccc(C(F)(F)F)c5)cc4)[C@@H]3C(=O)O)c(=O)c2c1 (single isomer, unassigned) [Example 102, (−)-(1RS,2SR,5RS)-2-[(6-Methyl-4-oxo-1,2,3-benzotriazin-3(4H)-yl)methyl]-5-(4-{[3-(trifluoromethyl)benzyl]oxy}benzoyl)cyclopentanecarboxylic acid] showed an IC50 of 8.7 nM.
In the case of Cc1ccc2nnn(C[C@H]3CC[C@@H](C(=O)c4ccc(OCc5cccc(Cl)c5)cc4)[C@@H]3C(=O)O)c(=O)c2c1 (single isomer, unassigned) [Example 105, (−)-(1RS,2RS,5SR)-2-{4-[(3-Chlorobenzyl)oxy]benzoyl}-5-[(6-methyl-4-oxo-1,2,3-benzotriazin-3(4H)-yl)methyl]cyclopentanecarboxylic acid], the IC50 is reported as 14 nM.
Work on COc1cccc(COc2ccc(C(=O)[C@@H]3CC[C@H](Cn4nnc5ccc(C)cc5c4=O)[C@H]3C(=O)O)cc2)c1 (single isomer, unassigned) [Example 108, (−)-(1RS,2RS,5SR)-2-{4-[(3-Methoxybenzyl)oxy]benzoyl}-5-[(6-methyl-4-oxo-1,2,3-benzotriazin-3(4H)-yl)methyl]cyclopentanecarboxylic acid] yielded an IC50 of 470 nM.
In the case of Cc1ccc2nnn(C[C@H]3CC[C@@H](C(=O)c4ccc(OCc5cccc(OC(F)(F)F)c5)cc4)[C@@H]3C(=O)O)c(=O)c2c1 (single isomer, unassigned) [Example 111, (−)-(1RS,2SR,5RS)-2-[(6-Methyl-4-oxo-1,2,3-benzotriazin-3(4H)-yl)methyl]-5-(4-{[3-(trifluoromethoxy)benzyl]oxy}benzoyl)cyclopentanecarboxylic acid], the IC50 is reported as 140 nM.
Work on Cc1ccc2nnn(C[C@H]3CC[C@@H](C(=O)c4ccc(OCCc5ccccc5)cc4)[C@@H]3C(=O)O)c(=O)c2c1 (single isomer, unassigned) [Example 113, (+)-(1RS,2SR,5RS)-2-[(6-Methyl-4-oxo-1,2,3-benzotriazin-3(4H)-yl)methyl]-5-[4-(2-phenylethoxy)benzoyl]cyclopentanecarboxylic acid] yielded an IC50 of 0.24 nM.
Cc1ccc2nnn(C[C@H]3CC[C@@H](C(=O)c4ccc(OCCc5ccccc5)cc4)[C@@H]3C(=O)O)c(=O)c2c1 (single isomer, unassigned) [Example 114, (−)-(1RS,2SR,5RS)-2-[(6-Methyl-4-oxo-1,2,3-benzotriazin-3(4H)-yl)methyl]-5-[4-(2-phenylethoxy)benzoyl]cyclopentanecarboxylic acid] was tested, and the IC50 was 110 nM.
Compound Cc1ccc2nnn(C[C@H]3CC[C@@H](C(=O)c4ccc(OCC5CCCCC5)cc4)[C@@H]3C(=O)O)c(=O)c2c1 (single isomer, unassigned) [Example 118, (−)-(1RS,2RS,5SR)-2-[4-(Cyclohexylmethoxy)benzoyl]-5-[(6-methyl-4-oxo-1,2,3-benzotriazin-3(4H)-yl)methyl]cyclopentanecarboxylic acid] has an IC50 of 150 nM.
